pKd: −log10 of the molar value.
Legend:
[1] = molecular target: human RIPK1 (Homo sapiens (Human), UniProt Q13546); experiment: KINOMEscan binding assay, human RIPK1; settings: Table 21
Summary of the method: (§1)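 Competition binding format with qPCR detection. Kinases, either phage-fused from E. coli lysates or HEK-293-derived with a DNA tag, bound ligand-coated beads in the presence of compound (11 points, 3-fold steps, 1% DMSO, top usually 30,000 nM). Kd from nonlinear Hill fitting with slope −1.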

[2] = molecular target: human MLKL (full length) (Homo sapiens (Human), UniProt Q8NB16); experiment: KINOMEscan binding assay, human MLKL (full length); settings: KINOMEscan, Table 21; read-out: Human MLKL (full-length) (KD)
Experimental: Binding affinity of the test compounds for human MLKL (full length), mouse MLKL (full length), human RIPK1 and human RIPK3 was determined using the KINOMEscan™ technology developed by DiscoverX (USA; http://www.discoverx.com). The assay was conducted according to manufacturer instructions.
Kinase assays. For most assays, kinase-tagged T7 phage strains were grown in parallel in 24-well blocks in an E. coli host derived from the BL21 strain. E. coli were grown to log-phase and infected with T7 phage from a frozen stock (multiplicity of infection=0.4) and incubated with shaking at 32° C. until lysis (90-150 minutes). The lysates were centrifuged (6,000×g) and filtered (0.2 μm) to remove cell debris. The remaining kinases were produced in HEK-293 cells and subsequently tagged with DNA for qPCR detection. […] The liganded beads were blocked with excess biotin and washed with blocking buffer (SeaBlock (Pierce), 1% BSA, 0.05% Tween 20, 1 mM DTT) to remove unbound ligand and to reduce non-specific phage binding. […] All reactions were performed in polypropylene 384-well plates in a final volume of 20 μL. […] The kinase concentration in the eluates was measured by qPCR.
An 11-point 3-fold serial dilution of each test compound was prepared in 100% DMSO at 100× final test concentration and subsequently diluted to 1× in the assay (final DMSO concentration=1%). Most Kos were determined using a compound top concentration=30,000 nM.
KD for each test compound was calculated with a standard dose-response curve using the Hill equation (equation (1)): […]
The Hill Slope was set to −1.
Curves were fitted using a non-linear least square fit with the Levenberg-Marquardt algorithm.

[3] = molecular target: human RIPK3 (Homo sapiens (Human), UniProt Q9Y572); experiment: KINOMEscan binding assay, human RIPK3; settings: Table 21
Summary of the method: as §1

Chain of human RIPK1 (Q13546 whole entry, the tested form may be a part): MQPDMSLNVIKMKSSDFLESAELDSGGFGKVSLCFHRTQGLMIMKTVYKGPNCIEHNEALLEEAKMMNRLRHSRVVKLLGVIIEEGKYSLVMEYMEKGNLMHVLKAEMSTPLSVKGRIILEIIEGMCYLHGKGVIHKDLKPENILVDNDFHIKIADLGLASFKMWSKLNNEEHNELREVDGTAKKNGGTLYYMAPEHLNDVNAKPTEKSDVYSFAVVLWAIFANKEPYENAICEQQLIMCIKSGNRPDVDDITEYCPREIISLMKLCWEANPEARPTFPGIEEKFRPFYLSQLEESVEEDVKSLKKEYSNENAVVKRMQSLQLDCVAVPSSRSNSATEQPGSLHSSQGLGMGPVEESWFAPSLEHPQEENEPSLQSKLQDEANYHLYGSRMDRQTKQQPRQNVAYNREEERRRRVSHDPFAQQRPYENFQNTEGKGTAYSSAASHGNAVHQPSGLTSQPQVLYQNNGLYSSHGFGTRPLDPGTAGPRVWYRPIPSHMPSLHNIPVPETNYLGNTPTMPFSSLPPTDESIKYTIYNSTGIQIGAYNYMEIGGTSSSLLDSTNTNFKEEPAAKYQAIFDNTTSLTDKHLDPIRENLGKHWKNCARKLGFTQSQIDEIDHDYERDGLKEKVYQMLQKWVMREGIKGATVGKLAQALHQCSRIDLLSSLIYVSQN
Chain of human MLKL (full length) (Q8NB16 whole entry): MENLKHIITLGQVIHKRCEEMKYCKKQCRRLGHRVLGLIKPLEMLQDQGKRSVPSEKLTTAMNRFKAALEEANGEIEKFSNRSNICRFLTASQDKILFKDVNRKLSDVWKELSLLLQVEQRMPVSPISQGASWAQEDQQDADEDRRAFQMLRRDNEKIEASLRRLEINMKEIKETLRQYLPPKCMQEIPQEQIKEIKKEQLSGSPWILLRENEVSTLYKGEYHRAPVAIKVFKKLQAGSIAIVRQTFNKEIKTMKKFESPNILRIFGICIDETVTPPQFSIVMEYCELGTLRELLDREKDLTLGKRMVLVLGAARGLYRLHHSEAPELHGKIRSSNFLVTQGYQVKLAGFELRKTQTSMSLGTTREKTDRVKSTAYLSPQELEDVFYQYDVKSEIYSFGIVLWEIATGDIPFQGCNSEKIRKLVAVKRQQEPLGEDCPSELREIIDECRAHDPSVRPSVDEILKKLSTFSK
Chain of human RIPK3 (Q9Y572 whole entry): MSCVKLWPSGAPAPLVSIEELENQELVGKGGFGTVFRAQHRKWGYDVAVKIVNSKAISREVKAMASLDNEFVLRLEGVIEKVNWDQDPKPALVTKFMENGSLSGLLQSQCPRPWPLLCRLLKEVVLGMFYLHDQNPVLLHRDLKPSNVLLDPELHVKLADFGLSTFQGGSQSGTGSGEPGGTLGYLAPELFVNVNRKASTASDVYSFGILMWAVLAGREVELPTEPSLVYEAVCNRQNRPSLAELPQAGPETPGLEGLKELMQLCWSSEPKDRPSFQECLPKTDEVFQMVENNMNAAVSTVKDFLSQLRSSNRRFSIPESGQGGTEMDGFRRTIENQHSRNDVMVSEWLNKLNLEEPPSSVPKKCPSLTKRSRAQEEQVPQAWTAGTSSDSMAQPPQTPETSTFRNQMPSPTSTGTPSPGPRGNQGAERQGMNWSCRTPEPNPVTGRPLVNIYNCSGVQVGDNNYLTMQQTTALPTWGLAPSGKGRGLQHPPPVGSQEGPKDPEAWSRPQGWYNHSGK

C[C@H](Oc1cc(-c2cnn3c(-c4cnn(C)c4)cnc(N)c23)ccc1NS(=O)(=O)C(F)F)c1ccc(F)cc1 [Compound 35, (S)-N-(4-(4-amino-7-(1-methyl-1H-pyrazol-4-yl)pyrazolo[1,5-a]pyrazin-3-yl)-2-(1-(4-fluorophenyl)ethoxy)phenyl)-1,1-difluoromethane-sulfonamide]
pKd [1]: < 5.00 | pKd [2]: > 9.00 | pKd [3]: < 5.00

C[C@H](Oc1cc(-c2cnn3c(-c4cnn(C5CCOCC5)c4)cnc(N)c23)ccc1NS(=O)(=O)C(F)F)c1ccc(F)cc1 [Compound 36, (S)-N-(4-(4-amino-7-(1-(tetrahydro-2H-pyran-4-yl)-1H-pyrazol-4-yl)pyrazolo[1,5-a]pyrazin-3-yl)-2-(1-(4-fluorophenyl)ethoxy)phenyl)-1,1-difluoromethane-sulfonamide]
pKd [1]: < 5.00 | pKd [2]: > 9.00 | pKd [3]: < 5.00

C[C@H](Oc1cc(-c2cnn3c(-c4cnn(CCO)c4)cnc(N)c23)ccc1NS(=O)(=O)C(F)F)c1ccc(F)cc1 [Compound 37, (S)-N-(4-(4-amino-7-(1-(2-hydroxyethyl)-1H-pyrazol-4-yl)pyrazolo[1,5-a]pyrazin-3-yl)-2-(1-(4-fluorophenyl)ethoxy)phenyl)-1,1-difluoromethane-sulfonamide]
pKd [1]: < 5.00 | pKd [2]: > 9.00 | pKd [3]: < 5.00

C[C@H](Oc1cc(-c2nn(C)c3c(-c4cnn(C5COC5)c4)cnc(N)c23)ccc1NS(=O)(=O)C(F)F)c1ccc(F)cc1 [Compound 38, (S)-N-(4-(4-amino-1-methyl-7-(1-(oxetan-3-yl)-1H-pyrazol-4-yl)-1H-pyrazolo[4,3-c]pyridin-3-yl)-2-(1-(4-fluorophenyl)ethoxy)phenyl)-1,1-difluoromethanesulfonamide]
pKd [1]: < 5.00 | pKd [2]: > 9.00 | pKd [3]: < 5.00

C[C@H](Oc1cc(-c2cnn3c(-c4ccncc4)cnc(N)c23)ccc1NS(=O)(=O)C(F)F)c1ccc(F)cc1 [Compound 39, (S)-N-(4-(4-amino-7-(pyridin-4-yl)pyrazolo[1,5-a]pyrazin-3-yl)-2-(1-(4-fluoro-phenyl)ethoxy)phenyl)-1,1-difluoromethane-sulfonamide]
pKd [1]: < 5.00 | pKd [2]: > 9.00 | pKd [3]: < 5.00

C[C@H](Oc1cc(-c2nn(C)c3c(-c4ccncn4)cnc(N)c23)ccc1NS(=O)(=O)C(F)F)c1ccc(F)cc1 [Compound 40, (S)—N-(4-(4-amino-1-methyl-7-(pyrimidin-4-yl)-1H-pyrazolo[4,3-c]pyridin-3-yl)-2-(1-(4-fluorophenyl)ethoxy)phenyl)-1,1-difluoromethanesulfonamide]
pKd [1]: < 5.00 | pKd [2]: > 9.00 | pKd [3]: < 5.00

C[C@H](Oc1cc(-c2nn(C)c3c(-c4cnn(C5CCOC5)c4)cnc(N)c23)ccc1NS(=O)(=O)C(F)F)c1ccc(F)cc1 (stereo partly drawn) [Compound 41, N-(4-(4-amino-1-methyl-7-(1-(tetrahydrofuran-3-yl)-1H-pyrazol-4-yl)-1H-pyrazolo[4,3-c]pyridin-3-yl)-2-((S)-1-(4-fluorophenyl)ethoxy)phenyl)-1,1-difluoromethanesulfonamide]
pKd [1]: < 5.00 | pKd [2]: > 9.00 | pKd [3]: < 5.00

CC(C)n1nc(-c2ccc(NS(=O)(=O)C(F)F)c(O[C@@H](C)c3ccc(F)cc3)c2)c2c(N)ncc(-c3ccncc3)c21 [Compound 50, (S)-N-(4-(4-amino-1-isopropyl-7-(pyridin-4-yl)-1H-pyrazolo[4,3-c]pyridin-3-yl)-2-(1-(4-fluorophenyl)ethoxy)phenyl)-1,1-difluoromethane-sulfonamide]
pKd [1]: < 5.00 | pKd [2]: > 9.00 | pKd [3]: < 5.00

CC#Cc1cnc(N)c2c(-c3ccc(NS(=O)(=O)C(F)F)c(O[C@@H](C)c4ccc(F)cc4)c3)nn(C)c12 [Compound 56, (S)-N-(4-(4-amino-1-methyl-7-(prop-1-yn-1-yl)-1H-pyrazolo[4,3-c]pyridin-3-yl)-2-(1-(4-fluorophenyl)ethoxy)phenyl)-1,1-difluoromethane-sulfonamide]
pKd [1]: < 5.00 | pKd [2]: > 9.00 | pKd [3]: < 5.00

C[C@H](Oc1cc(-c2nn(C)c3c(C#CC4CCOCC4)cnc(N)c23)ccc1NS(=O)(=O)C(F)F)c1ccc(F)cc1 [Compound 58, (S)-N-(4-(4-amino-1-methyl-7-((tetrahydro-2H-pyran-4-yl)ethynyl)-1H-pyrazolo[4,3-c]pyridin-3-yl)-2-(1-(4-fluorophenyl)ethoxy)phenyl)-1,1-difluoromethane-sulfonamide]
pKd [1]: < 5.00 | pKd [2]: > 9.00 | pKd [3]: < 5.00

C[C@H](Oc1cc(-c2nn(C)c3c(-c4cnn(C5CCNCC5)c4)cnc(N)c23)ccc1NS(=O)(=O)C(F)F)c1ccc(F)cc1 [Compound 59, N-(4-{4-amino-1-methyl-7-[1-(piperidin-4-yl)-1H-pyrazol-4-yl]-1H-pyrazolo[4,3-c]pyridin-3-yl}-2-[(1 S)-1-(4-fluorophenyl)ethoxy]phenyl)-1,1-difluoromethanesulfonamide]
pKd [1]: < 5.00 | pKd [2]: > 9.00 | pKd [3]: < 5.00

Nc1n[nH]c2nccc(-c3ccc(NS(=O)(=O)C(F)F)c(OCc4ccc(F)cc4)c3)c12 [Compound 66, N-(4-(3-Amino-1H-pyrazolo[3,4-b]pyridin-4-yl)-2-((4-fluorophenyl)methoxy)phenyl)-1,1-difluoromethanesulfonamide]
pKd [1]: < 5.00 | pKd [2]: > 9.00 | pKd [3]: < 5.00

Nc1n[nH]c2nccc(-c3ccc(NS(=O)(=O)CC(F)(F)F)c(OCc4ccc(F)cc4)c3)c12 [Compound 67, N-(4-(3-Amino-1H-pyrazolo[3,4-b]pyridin-4-yl)-2-((4-fluorophenyl)methoxy)phenyl)-2,2,2-trifluoroethane-1-sulfonamide]
pKd [1]: < 5.00 | pKd [2]: > 9.00 | pKd [3]: < 5.00

Nc1n[nH]c2ncnc(-c3ccc(NS(=O)(=O)C(F)F)c(OCc4ccc(F)cc4)c3)c12 [Compound 69, N-(4-(3-Amino-1H-pyrazolo[3,4-d]pyrimidin-4-yl)-2-((4-fluorophenyl)methoxy)phenyl)-1,1-difluoromethanesulfonamide]
pKd [1]: < 5.00 | pKd [2]: > 9.00 | pKd [3]: < 5.00

Cc1cc(-c2ccc(NS(=O)(=O)C(F)F)c(OCc3ccc(F)cc3)c2)c2c(N)n[nH]c2n1 [Compound 70, N-(4-(3-Amino-6-methyl-1H-pyrazolo[3,4-b]pyridin-4-yl)-2-((4-fluorophenyl)methoxy)phenyl)-1,1-difluoromethanesulfonamide]
pKd [1]: < 5.00 | pKd [2]: > 9.00 | pKd [3]: < 5.00

C[C@H](Oc1cc(-c2ccnc3[nH]nc(N)c23)ccc1NS(=O)(=O)C(F)F)c1ccc(F)cc1 [Compound 72, N-(4-(3-Amino-1H-pyrazolo[3,4-b]pyridin-4-yl)-2-((1 S)-1-(4-fluorophenyl)ethoxy)phenyl)-1,1-difluoromethanesulfonamide]
pKd [1]: < 5.00 | pKd [2]: > 9.00 | pKd [3]: < 5.00

C[C@H](Oc1cc(-c2nn(C)c3c(-c4cnn(C5CC6CCC(C5)N6C)c4)cnc(N)c23)ccc1NS(=O)(=O)C(F)F)c1ccc(F)cc1 (stereo partly drawn) [Compound 73, N-(4-(4-amino-1-methyl-7-(1-(8-methyl-8-azabicyclo[3.2.1]octan-3-yl)-1H-pyrazol-4-yl)-1H-pyrazolo[4,3-c]pyridin-3-yl)-2-((S)-1-(4-fluorophenyl)ethoxy)phenyl)-1,1-difluoromethanesulfonamide]
pKd [1]: < 5.00 | pKd [2]: > 9.00 | pKd [3]: < 5.00

C[C@H](Oc1cc(-c2nn(C)c3c(-c4cnn(CCN5CC(C)(C)C5)c4)cnc(N)c23)ccc1NS(=O)(=O)C(F)F)c1ccc(F)cc1 [Compound 75, (S)-N-(4-(4-amino-7-(1-(2-(3,3-dimethylazetidin-1-yl)ethyl)-1H-pyrazol-4-yl)-1-methyl-1H-pyrazolo[4,3-c]pyridin-3-yl)-2-(1-(4-fluorophenyl)ethoxy)phenyl)-1,1-difluoromethanesulfonamide]
pKd [1]: < 5.00 | pKd [2]: > 9.00 | pKd [3]: < 5.00

CC(C)N1CC(n2cc(-c3cnc(N)c4c(-c5ccc(NS(=O)(=O)C(F)F)c(O[C@@H](C)c6ccc(F)cc6)c5)nn(C)c34)cn2)C1 [Compound 76, (S)-N-(4-(4-amino-7-(1-(1-isopropylazetidin-3-yl)-1H-pyrazol-4-yl)-1-methyl-1H-pyrazolo[4,3-c]pyridin-3-yl)-2-(1-(4-fluorophenyl)ethoxy)phenyl)-1,1-difluoromethanesulfonamide]
pKd [1]: < 5.00 | pKd [2]: > 9.00 | pKd [3]: < 5.00

C[C@H](Oc1cc(-c2nn(C)c3c(-c4cnn(C5CN(CC(F)(F)F)C5)c4)cnc(N)c23)ccc1NS(=O)(=O)C(F)F)c1ccc(F)cc1 [Compound 77, (S)-N-(4-(4-amino-1-methyl-7-(1-(1-(2,2,2-trifluoroethyl)azetidin-3-yl)-1H-pyrazol-4-yl)-1H-pyrazolo[4,3-c]pyridin-3-yl)-2-(1-(4-fluorophenyl)ethoxy)phenyl)-1,1-difluoromethanesulfonamide]
pKd [1]: < 5.00 | pKd [2]: > 9.00 | pKd [3]: < 5.00

From patent US20250115598A1 (Anaxis Pharma Pty Ltd, priority 2021, published 2025)
